ChEMBL document CHEMBL1909046, “DrugMatrix in vitro pharmacology data”

How the values were obtained:
[1] = DRUGMATRIX: Calcium Channel Type L, Benzothiazepine radioligand binding (ligand: [3H] Diltiazem); format: cell membranes, Rattus norvegicus, Wistar, Brain, Membrane; details: Not Active = under 50% inhibition at 10 µM
[2] = target: T1, 5-hydroxytryptamine receptor 2C (Homo sapiens, UniProt P28335); test: DRUGMATRIX: Serotonin (5-Hydroxytryptamine) 5-HT2C radioligand binding (ligand: [3H] Mesulergine); format: cell membranes, CHO-K1, Membrane; details: Not Active = under 50% inhibition at 10 µM; for Ki: read-out: Ki
T1 sequence (P28335 whole entry): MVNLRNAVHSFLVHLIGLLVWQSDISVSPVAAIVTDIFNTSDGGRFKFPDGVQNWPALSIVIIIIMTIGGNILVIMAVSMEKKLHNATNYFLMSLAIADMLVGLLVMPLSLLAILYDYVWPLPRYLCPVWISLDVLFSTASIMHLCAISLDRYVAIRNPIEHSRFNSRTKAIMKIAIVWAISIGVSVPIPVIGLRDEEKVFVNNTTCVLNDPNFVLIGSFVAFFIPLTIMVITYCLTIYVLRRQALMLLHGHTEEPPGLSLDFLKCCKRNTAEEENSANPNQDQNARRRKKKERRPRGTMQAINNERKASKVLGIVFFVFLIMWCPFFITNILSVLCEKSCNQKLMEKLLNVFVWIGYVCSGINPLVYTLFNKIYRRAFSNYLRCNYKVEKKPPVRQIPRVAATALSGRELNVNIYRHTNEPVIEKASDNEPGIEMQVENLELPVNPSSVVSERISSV

[3] = target: Vascular endothelial growth factor receptor 1 (Homo sapiens, UniProt P17948); format: cell-based; details: huvec; note: in other assays of this panel Not Active means under 50% inhibition at 10 µM
Vascular endothelial growth factor receptor 1, sequence (P17948 whole entry): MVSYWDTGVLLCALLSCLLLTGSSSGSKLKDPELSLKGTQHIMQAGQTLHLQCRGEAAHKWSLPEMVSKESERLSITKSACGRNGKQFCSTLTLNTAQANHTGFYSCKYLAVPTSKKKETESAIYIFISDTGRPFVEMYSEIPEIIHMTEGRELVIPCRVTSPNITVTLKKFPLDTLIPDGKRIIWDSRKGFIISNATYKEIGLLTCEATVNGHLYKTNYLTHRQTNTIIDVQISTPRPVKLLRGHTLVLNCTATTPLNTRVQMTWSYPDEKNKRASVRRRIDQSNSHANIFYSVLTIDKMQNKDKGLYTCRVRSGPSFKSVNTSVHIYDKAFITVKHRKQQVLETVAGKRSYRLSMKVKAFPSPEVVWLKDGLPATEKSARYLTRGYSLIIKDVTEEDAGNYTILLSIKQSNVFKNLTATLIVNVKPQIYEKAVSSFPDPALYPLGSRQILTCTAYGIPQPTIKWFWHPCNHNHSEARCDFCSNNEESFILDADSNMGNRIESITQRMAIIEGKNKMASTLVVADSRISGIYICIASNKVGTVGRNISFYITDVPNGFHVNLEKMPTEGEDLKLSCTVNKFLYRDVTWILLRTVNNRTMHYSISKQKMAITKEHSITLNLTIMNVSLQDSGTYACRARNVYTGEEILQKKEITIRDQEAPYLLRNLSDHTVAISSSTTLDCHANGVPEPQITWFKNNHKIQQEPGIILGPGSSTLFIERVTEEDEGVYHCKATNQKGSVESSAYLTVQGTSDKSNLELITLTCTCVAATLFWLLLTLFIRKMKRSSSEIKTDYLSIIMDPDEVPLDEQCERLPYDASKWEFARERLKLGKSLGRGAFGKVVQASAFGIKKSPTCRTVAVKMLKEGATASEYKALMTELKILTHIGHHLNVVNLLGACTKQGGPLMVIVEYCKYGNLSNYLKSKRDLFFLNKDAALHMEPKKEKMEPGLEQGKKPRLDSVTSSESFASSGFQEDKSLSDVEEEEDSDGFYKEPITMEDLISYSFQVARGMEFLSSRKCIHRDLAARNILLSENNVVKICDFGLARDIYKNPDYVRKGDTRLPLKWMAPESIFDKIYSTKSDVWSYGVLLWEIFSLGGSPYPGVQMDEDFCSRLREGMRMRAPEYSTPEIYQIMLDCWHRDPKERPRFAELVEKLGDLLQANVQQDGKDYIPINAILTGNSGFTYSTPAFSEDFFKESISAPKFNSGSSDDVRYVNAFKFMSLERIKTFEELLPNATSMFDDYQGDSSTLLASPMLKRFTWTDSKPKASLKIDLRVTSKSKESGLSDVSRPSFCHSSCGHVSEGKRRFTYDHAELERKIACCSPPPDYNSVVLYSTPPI

D(3) dopamine receptor = D(3) dopamine receptor (Homo sapiens, UniProt P35462); test: DRUGMATRIX: Dopamine D3 radioligand binding (ligand: [3H] Spiperone); format: cell membranes, CHO, Membrane; details: for Ki: read-out: Ki
D(3) dopamine receptor, sequence (P35462 whole entry): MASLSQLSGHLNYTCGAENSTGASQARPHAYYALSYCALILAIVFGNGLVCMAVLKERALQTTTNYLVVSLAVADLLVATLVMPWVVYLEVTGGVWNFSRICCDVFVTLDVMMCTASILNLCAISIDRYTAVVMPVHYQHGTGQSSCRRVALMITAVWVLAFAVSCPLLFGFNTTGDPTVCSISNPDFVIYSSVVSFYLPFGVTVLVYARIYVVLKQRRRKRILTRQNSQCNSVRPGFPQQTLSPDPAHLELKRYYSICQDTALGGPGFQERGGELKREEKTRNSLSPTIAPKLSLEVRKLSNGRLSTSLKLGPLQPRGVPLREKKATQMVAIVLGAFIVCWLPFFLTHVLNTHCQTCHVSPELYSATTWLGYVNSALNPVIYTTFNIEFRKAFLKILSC

[4] = target: Kappa-type opioid receptor (Homo sapiens, UniProt P41145); test: DRUGMATRIX: Opiate kappa (OP2, KOP) radioligand binding (ligand: [3H] Diprenorphine); format: cell membranes, HEK293, Membrane; details: hek293; Not Active = under 50% inhibition at 10 µM
Kappa-type opioid receptor, sequence (P41145 whole entry): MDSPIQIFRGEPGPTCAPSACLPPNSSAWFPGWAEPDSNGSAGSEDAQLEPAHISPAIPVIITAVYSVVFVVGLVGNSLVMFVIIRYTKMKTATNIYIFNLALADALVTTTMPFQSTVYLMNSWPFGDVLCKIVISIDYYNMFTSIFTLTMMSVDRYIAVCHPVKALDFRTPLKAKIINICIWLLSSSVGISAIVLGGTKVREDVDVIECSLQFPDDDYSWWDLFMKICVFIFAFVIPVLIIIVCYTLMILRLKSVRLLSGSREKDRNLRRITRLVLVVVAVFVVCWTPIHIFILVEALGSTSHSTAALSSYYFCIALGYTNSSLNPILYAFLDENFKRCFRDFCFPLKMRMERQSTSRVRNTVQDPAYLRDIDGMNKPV

[5] = target: Platelet-activating factor receptor (Homo sapiens, UniProt P25105); format: tissue-based; note: in other assays of this panel Not Active means under 50% inhibition at 10 µM
Platelet-activating factor receptor, sequence (P25105 whole entry): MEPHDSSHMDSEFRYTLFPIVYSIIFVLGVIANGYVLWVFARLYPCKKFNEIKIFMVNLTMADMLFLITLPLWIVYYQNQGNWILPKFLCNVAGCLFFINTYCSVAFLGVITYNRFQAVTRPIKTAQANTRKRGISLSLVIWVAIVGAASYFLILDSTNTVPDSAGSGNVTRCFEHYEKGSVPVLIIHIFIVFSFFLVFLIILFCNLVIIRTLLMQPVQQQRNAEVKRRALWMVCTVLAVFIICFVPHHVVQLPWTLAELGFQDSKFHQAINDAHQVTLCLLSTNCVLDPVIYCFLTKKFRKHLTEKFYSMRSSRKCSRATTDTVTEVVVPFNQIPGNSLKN

| SMILES | IC50 [1] | Ki [1] | IC50 ([2]; read-out: IC50) [nM] | Ki [2] [nM] | IC50 [3] | IC50 (D(3) dopamine receptor; read-out: IC50) [nM] | Ki (D(3) dopamine receptor) [nM] | IC50 [4] | IC50 [5] | IC50 ([2]; cho-k1) | IC50 (D(3) dopamine receptor; cho) | IC50 ([1]; read-out: IC50) [nM] | Ki ([1]; read-out: Ki) [nM] |
| --- | --- | --- | --- | --- | --- | --- | --- | --- | --- | --- | --- | --- | --- |
| CC(C)C[C@H]1C(=O)N2CCC[C@H]2[C@]2(O)O[C@](NC(=O)[C@@H]3C=C4c5cccc6[nH]cc(c56)C[C@H]4N(C)C3)(C(C)C)C(=O)N12 [ERGOCRYPTINE] | Not Active | Not Active | 147 | 77 | Not Active | 0.589 | 0.2 | Not Active | Not Active |  |  |  |  |
| C[C@]12CC[C@@H]3c4ccc(O)cc4CC[C@H]3[C@@H]1C[C@@H](O)[C@@H]2O [ESTRIOL] | Not Active | Not Active |  |  | Not Active |  |  | Not Active | Not Active | Not Active | Not Active |  |  |
| C#C[C@]1(O)CC[C@H]2[C@@H]3CCC4=CC(=O)CC[C@]4(C)[C@H]3CC[C@@]21C [ETHISTERONE] | Not Active | Not Active |  |  | Not Active |  |  | Not Active | Not Active | Not Active | Not Active |  |  |
| CC(O)(P(=O)(O)O)P(=O)(O)O [ETIDRONIC ACID] | Not Active | Not Active |  |  | Not Active |  |  | Not Active | Not Active | Not Active | Not Active |  |  |
| CC(C)(C(=O)O)c1ccc(C(O)CCCN2CCC(C(O)(c3ccccc3)c3ccccc3)CC2)cc1 (stereo unspecified) [FEXOFENADINE] | Not Active | Not Active |  |  | Not Active |  |  | Not Active | Not Active | Not Active | Not Active |  |  |
| CN1CCN(c2c(F)cc3c(=O)c(C(=O)O)cn(CCF)c3c2F)CC1 [FLEROXACIN] | Not Active | Not Active |  |  | Not Active |  |  | Not Active | Not Active | Not Active | Not Active |  |  |
| O=c1[nH]c(=O)n([C@H]2C[C@H](O)[C@@H](CO)O2)cc1F [FLOXURIDINE] | Not Active | Not Active |  |  | Not Active |  |  | Not Active | Not Active | Not Active | Not Active |  |  |
| COC(=O)Nc1nc2cc(C(=O)c3ccc(F)cc3)ccc2[nH]1 [FLUBENDAZOLE] | Not Active | Not Active |  |  | Not Active |  |  | Not Active | Not Active | Not Active | Not Active |  |  |
| CC(=O)OCC(=O)[C@@]1(O)CC[C@H]2[C@@H]3CCC4=CC(=O)CC[C@]4(C)[C@@]3(F)[C@@H](O)C[C@@]21C [FLUDROCORTISONE ACETATE] | Not Active | Not Active |  |  | Not Active |  |  | Not Active | Not Active | Not Active | Not Active |  |  |
| CCOC(=O)c1ncn2c1CN(C)C(=O)c1cc(F)ccc1-2 [FLUMAZENIL] | Not Active | Not Active |  |  | Not Active |  |  | Not Active | Not Active | Not Active | Not Active |  |  |
| CC(=O)OCC(=O)[C@@]12OC(C)(C)O[C@@H]1C[C@H]1[C@@H]3C[C@H](F)C4=CC(=O)C=C[C@]4(C)[C@@]3(F)[C@@H](O)C[C@@]12C [FLUOCINONIDE] | Not Active | Not Active |  |  | Not Active |  |  | Not Active | Not Active | Not Active | Not Active |  |  |
| O=C(O)P(=O)(O)O [FOSCARNET] | Not Active | Not Active |  |  | Not Active |  |  | Not Active | Not Active | Not Active | Not Active |  |  |
| Cc1ccc(C)c(OCCCC(C)(C)C(=O)O)c1 [GEMFIBROZIL] | Not Active | Not Active |  |  | Not Active |  |  | Not Active | Not Active | Not Active | Not Active |  |  |
| O=c1c(-c2ccc(O)cc2)coc2cc(O)cc(O)c12 [GENISTEIN] | Not Active | Not Active | 14900 | 7810 | Not Active |  |  | Not Active | Not Active |  | Not Active |  |  |
| CCC1=C(C)CN(C(=O)NCCc2ccc(S(=O)(=O)NC(=O)N[C@H]3CC[C@H](C)CC3)cc2)C1=O [GLIMEPIRIDE] | Not Active | Not Active |  |  | Not Active |  |  | Not Active | Not Active | Not Active | Not Active |  |  |
| Nc1cc(-c2ccncc2)c[nH]c1=O [INAMRINONE] | Not Active | Not Active |  |  | Not Active |  |  | Not Active | Not Active | Not Active | Not Active |  |  |

| SMILES | IC50 [1] | Ki [1] | IC50 ([2]; read-out: IC50) [nM] | Ki [2] [nM] | IC50 [3] | IC50 (D(3) dopamine receptor; read-out: IC50) [nM] | Ki (D(3) dopamine receptor) [nM] | IC50 [4] | IC50 [5] | IC50 ([2]; cho-k1) | IC50 (D(3) dopamine receptor; cho) | IC50 ([1]; read-out: IC50) [nM] | Ki ([1]; read-out: Ki) [nM] |
| --- | --- | --- | --- | --- | --- | --- | --- | --- | --- | --- | --- | --- | --- |
| CCCCC1=NC2(CCCC2)C(=O)N1Cc1ccc(-c2ccccc2-c2nnn[nH]2)cc1 [IRBESARTAN] | Not Active | Not Active |  |  | Not Active |  |  | Not Active | Not Active | Not Active | Not Active |  |  |
| CN1CCC(=C2c3ccccc3CC(=O)c3sccc32)CC1 [KETOTIFEN] |  |  | 160 | 84 | Not Active | 1960 | 667 | Not Active | Not Active |  |  | 2300 | 2050 |
| N[C@@H](Cn1ccc(=O)c(O)c1)C(=O)O [L-MIMOSINE] | Not Active | Not Active |  |  | Not Active |  |  | Not Active | Not Active | Not Active | Not Active |  |  |
| C[C@H]1COc2c(N3CCN(C)CC3)c(F)cc3c(=O)c(C(=O)O)cn1c23.C[C@H]1COc2c(N3CCN(C)CC3)c(F)cc3c(=O)c(C(=O)O)cn1c23.O [LEVOFLOXACIN] | Not Active | Not Active |  |  | Not Active |  |  | Not Active | Not Active | Not Active | Not Active |  |  |
| CCn1cc(C(=O)O)c(=O)c2cc(F)c(N3CCNC(C)C3)c(F)c21 (stereo unspecified) [LOMEFLOXACIN] | Not Active | Not Active |  |  | Not Active |  |  | Not Active | Not Active | Not Active | Not Active |  |  |
| CN1CCCC(CN2c3ccccc3Sc3ccccc32)C1 (stereo unspecified) [MEPAZINE] | Not Active | Not Active | 495 | 259 | Not Active | 2010 | 681 | Not Active | Not Active |  |  |  |  |
| Cc1cccc(C)c1NC(=O)C1CCCCN1C (stereo unspecified) [MEPIVACAINE] | Not Active | Not Active |  |  | Not Active |  |  | Not Active | Not Active | Not Active | Not Active |  |  |
| CN(C)C(=N)NC(=N)N [METFORMIN] | Not Active | Not Active |  |  | Not Active |  |  | Not Active | Not Active | Not Active | Not Active |  |  |
| CC(C)(C)NCC(O)COc1cccc2c1CC(O)C(O)C2 (stereo unspecified) [NADOLOL] | Not Active | Not Active |  |  | Not Active |  |  | Not Active | Not Active | Not Active | Not Active |  |  |
| C[C@@H]1C/C=C/C=C/C=C/C=C/[C@H](O[C@@H]2O[C@H](C)[C@@H](O)[C@H](N)[C@@H]2O)C[C@@H]2O[C@](O)(C[C@@H](O)C[C@H]3O[C@@H]3/C=C/C(=O)O1)C[C@H](O)[C@H]2C(=O)O [NATAMYCIN] | Not Active | Not Active |  |  | Not Active |  |  | Not Active | Not Active | Not Active | Not Active |  |  |
| NC(=O)c1cccnc1 [NIACINAMIDE] | Not Active | Not Active |  |  | Not Active |  |  | Not Active | Not Active | Not Active | Not Active |  |  |
| CS(=O)(=O)Nc1ccc([N+](=O)[O-])cc1Oc1ccccc1 [NIMESULIDE] | Not Active | Not Active |  |  | Not Active |  |  | Not Active | Not Active | Not Active | Not Active |  |  |
| CN1C(=O)CN=C(c2ccccc2)c2cc([N+](=O)[O-])ccc21 [NIMETAZEPAM] | Not Active | Not Active |  |  | Not Active |  |  | Not Active | Not Active | Not Active | Not Active |  |  |
| COc1ccc2c(c1OC)C(=O)O[C@@H]2[C@H]1c2c(cc3c(c2OC)OCO3)CCN1C [NOSCAPINE] | Not Active | Not Active |  |  | Not Active |  |  | Not Active | Not Active | Not Active | Not Active |  |  |
| NC(=O)N1c2ccccc2CC(=O)c2ccccc21 [OXCARBAZEPINE] | Not Active | Not Active |  |  | Not Active |  |  | Not Active | Not Active | Not Active | Not Active |  |  |
| COc1ccnc(C[S+]([O-])c2nc3ccc(OC(F)F)cc3[nH]2)c1OC (stereo unspecified) [PANTOPRAZOLE] | Not Active | Not Active |  |  | Not Active |  |  | Not Active | Not Active | Not Active | Not Active |  |  |
